Assay results taken from US20240424004A1, “COMBINATION OF TLR LIGANDS, COMPOUNDS LABELLING TUMORS FOR IMMUNE ATTACK, ANTI-CD40 ANTIBODIES AND INHIBITORS OF GLUTAMINE METABOLISM FOR TREATING CANCER” (priority 2021, published 2024).

Columns and labels:
[1] = system: Panc02 cells; assay: Example 6: bilateral Panc02 model, i.t. MBTA + DON i.t. (left tumor) versus i.p.; format: in vivo, C57BL/6 mice; conditions: with MBTA in right tumor, days 1,8,15,22,29
Experimental: (§1) Subcutaneous transplantation: Mice were subcutaneously injected with 4×10^5 Panc02 cells in 0.1 ml DMEM or 4×10^5 B16-F10 cells in 0.1 ml RPMI 1640 medium without additives into pre-shaved groin (right or both right and left).
(§2) MBTA immunotherapy: 50 μl of the therapeutic mixture consisting of 0.5 mg R-848, HCl form+0.5 mg poly (I:C), 0.5 mg LTA and 0.4 mg anti-CD40/ml of 0.2 mM mannan-BAM in PBS was administered intratumorally on days 0, 1, 2, 8, 9, 10, 16, 17, 18, 24, 25, and 26. The combination of R-848, poly (I:C), LTA, mannan-BAM and anti-CD40 antibody is hereinafter referred to as ‘MBTA’. In the case of the bilateral Panc02 tumor model, MBTA therapy was always injected only into the right subcutaneous tumor.
(§3) Evaluation of treatment: Tumor sizes were measured every other day using a digital calliper. The formula V=(π/6)AB^2, A being the largest tumor size, B being the smallest tumor size, was used to calculate tumor volume.
(§4) The areas under the curves (AUC) were calculated to evaluate tumor growth. The obtained values were statistically evaluated by one-way ANOVA with unequal post hoc test. Kaplan-Meier survival curves were evaluated using the long-rank test. STATISTICA 12 software (StatSoft, Inc., Tulsa, OK, USA) was used for all statistical evaluations. Error bars represent standard error of the mean (SEM). […]

[2] = system: Panc02 cells; assay: Example 5: bilateral Panc02 model, i.t. MBTA + s.c. DON in different dosages; format: in vivo, C57BL/6 mice; conditions: with i.t. MBTA, DON s.c. 80 μg or 400 μg, days 1,9,17,25,33
Experimental: as §1, §2, §3, §4

[3] = system: Panc02 cells; assay: Example 4: bilateral Panc02 model, i.t. MBTA + i.p. DON in two timing regimes; format: in vivo; conditions: for prolongation of mice survival: FIG. 4C
Experimental: as §1, §2, §3
The areas under the curves (AUC) were calculated to evaluate tumor growth. The obtained values were statistically evaluated by one-way ANOVA with unequal post hoc test. Kaplan-Meier survival curves were evaluated using the long-rank test. STATISTICA 12 software (StatSoft, Inc., Tulsa, OK, USA) was used for all statistical evaluations. Error bars represent standard error of the mean (SEM).
To improve MBTA/DON combined therapy outcomes we tested the intraperitoneal administration of DON in combination with i.t. MBTA therapy. The total amount of DON (2 mg/mouse/therapy) was applied in two different regimes as further specified.
C57BL/6 mice were s.c. inoculated with Panc02 cells in both right and left flank. After 12 days, mice were randomized into four groups (n=6/group): Group treated with PBS applied in the right tumor; group treated with MBTA applied in the right tumor; group treated with MBTA applied in the right tumor, and DON applied i.p. (13 doses); group treated with MBTA applied in the right tumor, and DON applied i.p. (5 doses, red). MBTA (PBS in the control group) was applied in pulse regime on days 0, 1, 2, 8, 9, 10, 16, 17, 18, 24, 25, and 26. DON was administered i.p. on days 5, 13, 21, 29, 37 (400 μg) and 1, 3, 5, 7, 9, 11, 13 15 17 19 21, 23, 25 (154 μg), respectively.
FIG. 4A, B: Growth of right/left tumors. Statistical analysis was performed by calculating AUC (area under the curve) values using a one-way ANOVA test with Tukey's post hoc test (* p<0.05, **** p<0.001, ***** p<0.0005), FIG. 4 C: Survival analysis.

[4] = system: Panc02 cells; assay: Example 7: bilateral Panc02 model, i.t. MBTA + i.p. DON, efficacy and side effects; format: in vivo; conditions: DON 400 μg i.p., days 1,8,15,22,29, with i.t. MBTA
Experimental: as §1, §2, §3, §4

[N-]=[N+]=CC(=O)CC[C@H](N)C(=O)O [DON, 6-diazo-5-oxo-norleucine]
survival of treated mice ([1]; DON 400 μg i.p., FIG. 6C): significantly prolonged
efficacy of the therapy ([1]; DON 400 μg i.t. in left tumor, FIG. 6): did not improve the efficacy
reduction of tumor growth, compared to i.p. administration of DON (Example 4) ([2]; FIG. 5A, B): less evident
early deaths of treated mice ([2]; FIG. 5C): No early deaths
early deaths of treated mice ([3]; DON i.p. with a sufficient interval between each application, with i.t. MBTA (summary of Examples 4 to 6)): did not observe any early deaths
prolongation of mice survival ([3]; with i.t. MBTA, DON i.p. 154 μg, 13 doses, every other day): evident but not statistically significant
prolongation of mice survival ([3]; with i.t. MBTA, DON i.p. 400 μg, 5 doses): evident but not statistically significant
tolerability of regime / early death ([3]; with i.t. MBTA, DON i.p. every other day (154 μg, 13 doses), n=6/group): too aggressive and resulted in early death of three mice
water and food consumption ([4]; FIG. 7D, E): without any influence
weight of treated mice ([4]; FIG. 7F): without any influence
